One data set deals with human PMN. In words: Chemotaxis of human peripheral leukocytes (human PMN chemotaxis, FMLP as chemoattractant). Format: cell-based. To be noted: Leukocyte, FMLP 1×10^-8 M; for inhibition at 1 µM: read-out: PERCENT INHIBITION (human PMN chemotaxis) 1 μM; for inhibition at 0.01 µM: read-out: PERCENT INHIBITION (human PMN chemotaxis) 0.01 μm. The protocol:
A) Equal parts of citrated peripheral venous blood drawn from a normal volunteer were mixed with saline containing 6% dextran. The mixture was allowed to sediment for 30-40 minutes in a 50 ml polypropylene centrifuge tube. B) The plasma was decanted and centrifuged at 1500 rpm for 7 minutes and washed with saline. C) The supernatant was decanted and the contaminating red blood cells were eliminated by adding ice cold lysing solution and allowing the cell suspension to stand on ice for 5 minutes. […] E) The tubes were centrifuged at 400g for 30 minutes at room temperature. F) The supernatant was decanted and the PMNs (pelleted on the bottom of the tubes) were washed with saline and with Hanks buffer. The cells were adjusted to a final concentration of 3×10^6 cells/ml in Hanks buffer containing 0.5% BSA. 1) Chemoattractant: serial dilution was prepared of the stocks (10^-3 M) N-Formyl-methionyl-leucylphenylalanine in Hanks buffer and 130 μl of 1×10^-8 M solution was pipetted into the lower bottom chamber. The bottom chamber of the negative control was filled with saline. 2) Placed Millipore membranes to completely cover the wells and allowed the liquid to absorb. 3) Placed on upper chamber and tighten retaining nuts. 1) Sample preparation: Mixed equal volume of sample diluted in Hanks buffer containing […] and cell suspension in a test tube prior to pipetting 200 μl into appropriate duplicate chambers. 2) Incubated chambers at 37° C. for 40-60 minutes. 10) Three to five fields per membrane were counted with the aid of the Image Analyser (optimal 40-10). Special effort was made to select a standard for evaluating the cell monolayer in which the distribution of cells in the field of view is uniform. The number of cells at each […] level beneath the selected monolayer was then counted and the chemotactic index (CI) calculated by multiplying the individual cell count at each level by their corresponding depth of penetration, and taking the sum of these numbers. 11) The results in Table II are recorded as percent inhibition. Percent inhibition by each thienylbenzylamime was calculated as follows: [formula] The CI of the control was determined by conducting the assay with N-formyl-methionyl-leucylphenylalanine (FMLP) alone without any thienlbenzylamine. The background was determined by conducting the assay without any FMLP.

Data set [1] is described as follows: Hygroscopicity and stability in air of the hydrochloride salt. Format: physicochemical. The protocol:
D. Hydrochloride salt of 5-chloro-2[(2-dimethylaminomethylphenyl) hydroxymethyl]thiophene 1.0 g of the 5-chloro-2-[(2-dimethylaminomethylphenyl)hydroxymethyl]thiophene prepared in C was dissolved in ether. The etheral solution was cooled to -80° C. Upon addition of an ethereal HCl solution a white precipitate was obtained which was immediately filtered under N2 and dried in high vacuum without heating.

The next data set concerns paw swelling. In words: Reverse passive Arthus reaction, inhibition of paw swelling after oral dosing. Format: in vivo. To be noted: Rattus norvegicus, po, 30 mg/kg oral, rats. As for the experimental part: The reverse passive Arthus reaction is initiated by the interaction of antigen and antibody resulting in the formation of a precipitating immune complex, followed by fixation of complement, accumulation of leukocytes, edema and hemorrhage. The immunopathology of rheumatoid arthritis involves many of the parameters found in this reaction. Test groups (5 rats per group) are dosed orally with compounds one hour prior to the sub-plantar injection into the right hind paw of rabbit anti-ovalbumin antibody (50 μg/0.1 ml). Immediately afterwards, ovalbumin (Sigma, #5503) (5 mg/0.2 ml) is injected i.v. via the tail vein. The right hind paw volume is measured at hourly intervals, from one to four hours after the injection of the immune reactants. The change in paw volume for each animal is calculated by subtracting zero hour paw volume (before injection) from the paw volume at the time of measurement. The mean of these values is calculated for each group. Results are expressed in Table I below as percent inhibition of paw swelling compared to untreated controls.

The mark [2] stands for this setting: 2 h, 2 hours, read-out: % INHIBITION (of paw swelling) HOUR 2.
Where [3] appears, read: 3 h, 3 hours, read-out: % INHIBITION (of paw swelling) HOUR 3.
[4] abbreviates: 4 h, 4 hours, read-out: % INHIBITION (of paw swelling) HOUR 4.

Data on five compounds can be found in patent US5030647A, “Anti-inflammatory thienylbenzylamine compounds” (Boehringer Ingelheim Pharmaceuticals, Inc., priority 1990, dated 1991).

Molecules are shown by their SMILES. Structures can show the parent of a compound that is named as a salt. Where two headings read alike, the source gives them in different places.

The inhibition is the relative decrease from the control value, in per cent.

Consider `CN(C)Cc1ccccc1C(O)c1ccc(Cl)s1.Cl` (stereo not drawn) [Compound 2, 5-chloro-2-[(2-dimethylaminomethylphenyl)hydroxymethyl]thiophene hydrochloride], for which, in the data set with human PMN, the inhibition at 1 µM turned out to be 76% and the inhibition at 0.01 µM is 57%. Also, in data set [1], the hygroscopicity result is “extremely hygroscopic”. In addition, the stability in air entry in data set [1] (in air) was “unstable in air”.

In the case of `CN(C)Cc1ccccc1C(O)c1ccsc1Cl` (stereo not drawn) [Compound 22, 2-chloro-3-[(2-N,N-dimethylaminomethylphenyl)hydroxymethyl]thiophene hydrochloride], the inhibition in vivo at 30 mg/kg came out at 22% with paw swelling (setting [2]), 0% with paw swelling (setting [3]) and 0% in the data set on paw swelling (setting [4]). Further, the inhibition at 1 µM in the data set with human PMN turned out to be 29%.

As to `CN(C)Cc1ccccc1C(O)c1csc(Br)c1` (stereo not drawn) [Compound 23, 5-bromo-3-[(2-N,N-dimethylaminomethylphenyl)hydroxymethyl] thiophene hydrochloride], the results for the inhibition in vivo at 30 mg/kg with paw swelling (setting [2]), in the data set with paw swelling (setting [3]) and with paw swelling (setting [4]) were 72%, 66% and 44%, respectively. Further, in the data set with human PMN, the inhibition at 1 µM was 34%.

Consider `CN(C)Cc1ccccc1C(O)c1csc(Cl)c1` (stereo not drawn) [Compound 24, 5-chloro-3-[(2-N,N-dimethylaminomethylphenyl)hydroxymethyl]thiophene hydrochloride], for which the inhibition in vivo at 30 mg/kg with paw swelling (setting [2]) was 51%; in the data set on paw swelling (setting [3]) it was 54%; with paw swelling (setting [4]), 53%. For the same compound, the inhibition at 1 µM with human PMN is 19%.

Take `CN(C)Cc1ccccc1C(C)(O)c1ccc(Cl)s1` (stereo not drawn) [Compound 33, N,N-dimethyl-2-[1-(5-chlorothien-2-yl)-1-hydroxyethyl]benzylamine hydrochloride]: the inhibition in vivo at 30 mg/kg was determined as 66% with paw swelling (setting [2]), 60% in the data set on paw swelling (setting [3]) and 40% in the data set on paw swelling (setting [4]). Besides, the inhibition at 1 µM with human PMN came out at 26%. For the same compound, the inhibition at 0.01 µM in the data set on human PMN turned out to be 26%.
